This note sets out measurements from US12478617B2, “Lipidated peptide inhibitors of interleukin-23 receptor” (JANSSEN BIOTECH, INC., priority 2021, dated 2025).

Starred links: 1 amine or outer side, 2 acyl side, 3 side chain; linkers in the order of their positions; H or OH if unused. Positions of bridges follow the written chain, without caps; N, C: chain ends. Non-standard residues stand in square brackets, D forms with d. Residues, ends and D or L forms follow the SMILES beside them. Groups on a side chain read outwards from the residue. *: point of attachment. X2 = C[N+](C)(CCNC(=O)COCCOCCNC(=O)COCCOCCNC(=O)CC[C@H](NC(=O)CCCCCCCCCCCCCCCCC(=O)O)C(=O)O)CC(=O)*; X4 = O=C(O)CCCCCCCCCCCCCCC(=O)NC[C@H](NC(=O)CCCCCCCCCCCCCCC(=O)O)C(=O)*; Decanoyl(10-O(3-COOH-Ph)) = O=C(O)c1cccc(OCCCCCCCCCC(=O)*)c1; Trp(7-Me) = Cc1cccc2c(C[C@H](N)C(=O)O)c[nH]c12; C18 diacid = O=C(O)CCCCCCCCCCCCCCCCC(=O)*; C16 diacid = O=C(O)CCCCCCCCCCCCCCC(=O)*; γGlu = O=C(O)[C@H](CCC(=O)[*:2])N[*:1]; 2Nal = N[C@@H](Cc1ccc2ccccc2c1)C(=O)O; AEF = NCCOc1ccc(C[C@H](N)C(=O)O)cc1; PEG6 = NCCOCCOCCOCCOCCOCCOCCC(=O)O; Palmitoyl = CCCCCCCCCCCCCCCC(=O)*; 3Pal = N[C@@H](Cc1cccnc1)C(=O)O; NMeK = CN[C@@H](CCCCN)C(=O)O; Pen = CC(C)(S)[C@H](N)C(=O)O; Thp = NC1(C(=O)O)CCOCC1; AEEA = NCCOCCOCC(=O)O; Sar = CNCC(=O)O

This test deals with T1, IL-23R (Homo sapiens, UniProt Q5VWK5).
T1 construct: HEK293 cells containing IL-23R, IL-12RP31 and a firefly luciferase reporter gene driven by a STAT-inducible promoter (Promega); host or cells: HEK293
T1 sequence (Q5VWK5 24-629): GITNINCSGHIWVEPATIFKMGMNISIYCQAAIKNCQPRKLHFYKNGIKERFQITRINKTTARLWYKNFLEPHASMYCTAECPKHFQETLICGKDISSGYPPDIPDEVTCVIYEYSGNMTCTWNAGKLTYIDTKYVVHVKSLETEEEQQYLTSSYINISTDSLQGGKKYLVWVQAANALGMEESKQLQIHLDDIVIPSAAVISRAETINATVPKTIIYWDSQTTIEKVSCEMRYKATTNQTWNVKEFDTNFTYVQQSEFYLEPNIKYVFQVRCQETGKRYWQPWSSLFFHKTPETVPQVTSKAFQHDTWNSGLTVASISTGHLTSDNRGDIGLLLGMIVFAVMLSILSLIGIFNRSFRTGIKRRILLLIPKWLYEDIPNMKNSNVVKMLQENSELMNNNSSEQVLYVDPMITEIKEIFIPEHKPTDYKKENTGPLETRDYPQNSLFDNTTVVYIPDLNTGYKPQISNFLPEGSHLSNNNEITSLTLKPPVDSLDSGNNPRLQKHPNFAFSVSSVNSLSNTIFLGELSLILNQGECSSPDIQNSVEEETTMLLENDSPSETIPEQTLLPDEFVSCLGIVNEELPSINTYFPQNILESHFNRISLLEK
Description: IL23R Reporter Assay. It counts as cell-based. The gist of the method:
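Luminescence from BioGlo, read after cells were moved to 20 °C, followed a 5 h incubation at 37 °C, 5% CO2 with DMSO-diluted test compounds.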
As usually defined, the IC50 is the concentration at which inhibition is half-maximal. With `CC(=O)NCCCC[C@@H]1NC(=O)[C@H](Cc2c[nH]c3c(C)cccc23)NC(=O)[C@H]([C@@H](C)O)NC(=O)[C@H](CC(N)=O)NC(=O)[C@@H](NC(C)=O)C(C)(C)SSC(C)(C)[C@@H](C(=O)N[C@@H](Cc2ccc(OCCN)cc2)C(=O)N[C@@H](Cc2ccc3ccccc3c2)C(=O)NC2(C(=O)N[C@@H](CCCCNC(=O)C[N+](C)(C)CCNC(=O)COCCOCCNC(=O)COCCOCCNC(=O)CC[C@H](NC(=O)CCCCCCCCCCCCCCCCC(=O)O)C(=O)O)C(=O)N[C@@H](CC(N)=O)C(=O)N[C@@H](Cc3cccnc3)C(=O)N(C)CC(N)=O)CCOCC2)NC1=O` [Example 124, MeCO-Pen*-N-T-7MeW-K(Ac)-Pen*-AEF-2Nal-THP-K(SP6 PEG2PEG2gE C18OH)-N-3Pya-Sar-CONH2] (Ac-[Pen]NT[Trp(7-Me)]K(Ac)[Pen][AEF][2Nal][Thp]K(X2)N[3Pal][Sar]-NH2; disulfide 1-6), half-maximal inhibition (IC50) was put at 83 pM. In turn, `CC(=O)NCCCC[C@@H]1NC(=O)[C@H](Cc2c[nH]c3c(C)cccc23)NC(=O)[C@H]([C@@H](C)O)NC(=O)[C@H](CC(N)=O)NC(=O)[C@@H](NC(=O)[C@@H](CCCNC(=N)N)NC(C)=O)C(C)(C)SSC(C)(C)[C@@H](C(=O)N[C@@H](Cc2ccc(OCCN)cc2)C(=O)N[C@@H](Cc2ccc3ccccc3c2)C(=O)NC2(C(=O)N[C@@H](CCC(=O)O)C(=O)N[C@@H](CC(N)=O)C(=O)N[C@@H](Cc3cccnc3)C(=O)N(C)[C@@H](CCCCNC(=O)COCCOCCNC(=O)COCCOCCNC(=O)CC[C@H](NC(=O)CCCCCCCCCCCCCCC(=O)O)C(=O)O)C(N)=O)CCOCC2)NC1=O` [Example 22, MeCO-r-Pen*-N-T-7MeW-K(Ac)-Pen*-AEF-2Nal-THP-E-N-3Pya-NMeK(PEG2PEG2gEC16OH)-CONH2] (Ac-[dR][Pen]NT[Trp(7-Me)]K(Ac)[Pen][AEF][2Nal][Thp]EN[3Pal][NMeK]([AEEA-AEEA-γGlu-C16 diacid])-NH2; disulfide 2-7) gave an IC50 of 26 pM.

`CC(=O)NCCCC[C@@H]1NC(=O)[C@H](Cc2c[nH]c3c(C)cccc23)NC(=O)[C@H]([C@@H](C)O)NC(=O)[C@H](CC(N)=O)NC(=O)[C@@H](NC(=O)[C@@H](CCCCNC(=O)CCOCCOCCOCCOCCOCCOCCNC(=O)CC[C@H](NC(=O)CCCCCCCCCCCCCCCCC(=O)O)C(=O)O)NC(C)=O)C(C)(C)SSC(C)(C)[C@@H](C(=O)N[C@@H](Cc2ccc(OCCN)cc2)C(=O)N[C@@H](Cc2ccc3ccccc3c2)C(=O)NC2(C(=O)N[C@@H](CCCCNC(C)=O)C(=O)N[C@@H](CC(N)=O)C(=O)N[C@@H](Cc3cccnc3)C(=O)N(C)CC(N)=O)CCOCC2)NC1=O` [Example 60, MeCO-k(PEG6 gE C18OH)-Pen*-N-T-7MeW-K(Ac)-Pen*-AEF-2Nal-THP-K(Ac)-N-3Pya-Sar-CONH2] (Ac-[dK]([PEG6-γGlu-C18 diacid])[Pen]NT[Trp(7-Me)]K(Ac)[Pen][AEF][2Nal][Thp]K(Ac)N[3Pal][Sar]-NH2; disulfide 2-7) came in with an IC50 of 42 pM.

For the compound `CC(=O)NCCCC[C@@H]1NC(=O)[C@H](Cc2c[nH]c3c(C)cccc23)NC(=O)[C@H]([C@@H](C)O)NC(=O)[C@H](CC(N)=O)NC(=O)[C@@H](NC(C)=O)C(C)(C)SSC(C)(C)[C@@H](C(=O)N[C@@H](Cc2ccc(OCCN)cc2)C(=O)N[C@@H](Cc2ccc3ccccc3c2)C(=O)NC2(C(=O)N[C@@H](CCCCNC(=O)CC[C@H](NC(=O)CCCCCCCCCCCCCCC(=O)O)C(=O)O)C(=O)N[C@@H](CC(N)=O)C(=O)N[C@@H](Cc3cccnc3)C(=O)N(C)CC(N)=O)CCOCC2)NC1=O` [Example 29, MeCO-Pen*-N-T-7MeW-K(Ac)-Pen*-AEF-2Nal-THP-K(gEC16OH)-N-3Pya-Sar-CONH2] (Ac-[Pen]NT[Trp(7-Me)]K(Ac)[Pen][AEF][2Nal][Thp]K([γGlu-C16 diacid])N[3Pal][Sar]-NH2; disulfide 1-6), the IC50 came out at 60 pM. `CC(=O)NCCCC[C@@H]1NC(=O)[C@H](Cc2c[nH]c3c(C)cccc23)NC(=O)[C@H]([C@@H](C)O)NC(=O)[C@H](CC(N)=O)NC(=O)[C@@H](NC(C)=O)C(C)(C)SSC(C)(C)[C@@H](C(=O)N[C@@H](Cc2ccc(OCCN)cc2)C(=O)N[C@@H](Cc2ccc3ccccc3c2)C(=O)NC2(C(=O)N[C@@H](CCCCNC(=O)COCCOCCNC(=O)COCCOCCNC(=O)CC[C@H](NC(=O)CCCCCCCCCOc3cccc(C(=O)O)c3)C(=O)O)C(=O)N[C@@H](CC(N)=O)C(=O)N[C@@H](Cc3cccnc3)C(=O)N(C)CC(N)=O)CCOCC2)NC1=O` [Example 97, MeCO-Pen*-N-T-7MeW-K(Ac)-Pen*-AEF-2Nal-THP-K(PEG2PEG2gEmXOH)-N-3Pya-Sar-CONH2] (Ac-[Pen]NT[Trp(7-Me)]K(Ac)[Pen][AEF][2Nal][Thp]K([AEEA-AEEA-γGlu-Decanoyl(10-O(3-COOH-Ph))])N[3Pal][Sar]-NH2; disulfide 1-6) registered an IC50 of 8.2 pM. As for `CC(=O)NCCCC[C@@H]1NC(=O)[C@H](Cc2c[nH]c3c(C)cccc23)NC(=O)[C@H]([C@@H](C)O)NC(=O)[C@H](CC(N)=O)NC(=O)[C@@H](NC(C)=O)C(C)(C)SSC(C)(C)[C@@H](C(=O)N[C@@H](Cc2ccc(OCCN)cc2)C(=O)N[C@@H](Cc2ccc3ccccc3c2)C(=O)NC2(C(=O)N[C@@H](CCCCNC(=O)[C@H](CNC(=O)CCCCCCCCCCCCCCC(=O)O)NC(=O)CCCCCCCCCCCCCCC(=O)O)C(=O)N[C@@H](CC(N)=O)C(=O)N[C@@H](Cc3cccnc3)C(=O)N(C)CC(N)=O)CCOCC2)NC1=O` [Example 114, MeCO-Pen*-N-T-7MeW-K(Ac)-Pen*-AEF-2Nal-THP-K(DAP-(C16OH)2)-N-3Pya-Sar-CONH2] (Ac-[Pen]NT[Trp(7-Me)]K(Ac)[Pen][AEF][2Nal][Thp]K(X4)N[3Pal][Sar]-NH2; disulfide 1-6), the figure is 150 pM; as for `CC(=O)NCCCC[C@@H]1NC(=O)[C@H](Cc2c[nH]c3c(C)cccc23)NC(=O)[C@H]([C@@H](C)O)NC(=O)[C@H](CCCCNC(=O)COCCOCCNC(=O)COCCOCCNC(=O)CC[C@H](NC(=O)CCCCCCCCCCCCCCCCC(=O)O)C(=O)O)NC(=O)[C@@H](NC(C)=O)C(C)(C)SSC(C)(C)[C@@H](C(=O)N[C@@H](Cc2ccc(OCCN)cc2)C(=O)N[C@@H](Cc2ccc3ccccc3c2)C(=O)NC2(C(=O)N[C@@H](CCCCNC(C)=O)C(=O)N[C@@H](CC(N)=O)C(=O)N[C@@H](Cc3cccnc3)C(=O)N(C)CC(N)=O)CCOCC2)NC1=O` [Example 122, MeCO-Pen*-K(PEG2PEG2gEC18OH)-T-7MeW-K(Ac)-Pen*-AEF-2Nal-THP-K(Ac)-N-3Pya-Sar-CONH2] (Ac-[Pen]K([AEEA-AEEA-γGlu-C18 diacid])T[Trp(7-Me)]K(Ac)[Pen][AEF][2Nal][Thp]K(Ac)N[3Pal][Sar]-NH2; disulfide 1-6), 83 pM. For `CCCCCCCCCCCCCCCC(=O)N[C@@H](CCC(=O)NCCCC[C@H](NC(=O)C1(NC(=O)[C@H](Cc2ccc3ccccc3c2)NC(=O)[C@H](Cc2ccc(OCCN)cc2)NC(=O)[C@H]2NC(=O)[C@H](CCCCNC(C)=O)NC(=O)[C@H](Cc3c[nH]c4c(C)cccc34)NC(=O)[C@H]([C@@H](C)O)NC(=O)[C@H](CC(N)=O)NC(=O)[C@@H](NC(C)=O)C(C)(C)SSC2(C)C)CCOCC1)C(=O)N[C@@H](CC(N)=O)C(=O)N[C@@H](Cc1cccnc1)C(=O)N(C)CC(N)=O)C(=O)O` [Example 75, MeCO-Pen*-N-T-7MeW-K(Ac)-Pen*-AEF-2Nal-THP-K(gEC16)-N-3Pya-Sar-CONH2] (Ac-[Pen]NT[Trp(7-Me)]K(Ac)[Pen][AEF][2Nal][Thp]K([γGlu-Palmitoyl])N[3Pal][Sar]-NH2; disulfide 1-6), the IC50 was determined as 96 pM. As for `CC(=O)NCCCC[C@@H]1NC(=O)[C@H](Cc2c[nH]c3c(C)cccc23)NC(=O)[C@H]([C@@H](C)O)NC(=O)[C@H](CC(N)=O)NC(=O)[C@@H](NC(C)=O)C(C)(C)SSC(C)(C)[C@@H](C(=O)N[C@@H](Cc2ccc(OCCN)cc2)C(=O)N[C@@H](Cc2ccc3ccccc3c2)C(=O)NC2(C(=O)N[C@@H](CCCCNC(=O)COCCOCCNC(=O)COCCOCCNC(=O)CC[C@H](NC(=O)[C@H](CNC(=O)CCCCCCCCCCCCCCC(=O)O)NC(=O)CCCCCCCCCCCCCCC(=O)O)C(=O)O)C(=O)N[C@@H](CC(N)=O)C(=O)N[C@@H](Cc3cccnc3)C(=O)N(C)CC(N)=O)CCOCC2)NC1=O` [Example 116, MeCO-Pen*-N-T-7MeW-K(Ac)-Pen*-AEF-2Nal-THP-K(PEG2PEG2gE-DAP(C16OH)2)-N-3Pya-Sar-CONH2], half-maximal inhibition (IC50) was put at 150 pM. The compound `CCCCCCCCCCCCCCCC(=O)N[C@@H](CCC(=O)NCCCC[C@@H]1NC(=O)[C@@H](NC(=O)[C@@H](CCCNC(=N)N)NC(C)=O)C(C)(C)SSC(C)(C)[C@@H](C(=O)N[C@@H](Cc2ccc(OCCN)cc2)C(=O)N[C@@H](Cc2ccc3ccccc3c2)C(=O)NC2(C(=O)N[C@@H](CCCCNC(C)=O)C(=O)N[C@@H](CC(N)=O)C(=O)N[C@@H](Cc3cccnc3)C(=O)N(C)CC(N)=O)CCOCC2)NC(=O)[C@H](CCCCNC(C)=O)NC(=O)[C@H](Cc2c[nH]c3c(C)cccc23)NC(=O)[C@H]([C@@H](C)O)NC1=O)C(=O)O` [Example 69, MeCO-r-Pen*-K(gEC16)-T-7MeW-K(Ac)-Pen*-AEF-2Nal-THP-K(Ac)-N-3Pya-Sar-CONH2] (Ac-[dR][Pen]K([γGlu-Palmitoyl])T[Trp(7-Me)]K(Ac)[Pen][AEF][2Nal][Thp]K(Ac)N[3Pal][Sar]-NH2; disulfide 2-7) displayed an IC50 of 130 pM.
